Starred links: 1 amine or outer side, 2 acyl side, 3 side chain; linkers in the order of their positions; H or OH if unused. Positions of bridges follow the written chain, without caps; N, C: chain ends. Residues, ends and D or L forms follow the SMILES beside them. *: point of attachment. X1 = O=C(COCC(=O)*)NCCOCCOCCOCCOCCOCCNC(=O)CSCCCF; CH2 = C([*:1])[*:2]
Target: T1, ανβ3 integrin receptor (Homo sapiens, UniProt P05106+P06756)
T1 construct: Using cell membrane preparations known to express the ανβ3 integrin receptor; endogenous in cells
Experiment: competitive binding with 125I-echistatin on cell membrane preparations
Details: cell membrane preparations expressing ανβ3 integrin receptor; 125I-echistatin as radioligand; Ki calculated using Prism software
Experimental: Using cell membrane preparations known to express the ανβ3 integrin receptor, competitive binding studies were carried out using ^125I-echistatin and the F-labelled peptides as competing ligand. Binding curves were obtained and Ki's calculated using Prism™ software.

Compound: N=C(N)NCCC[C@@H]1NC(=O)[C@@H]2CSCSC[C@H](NC(=O)[C@H](CC(=O)O)NC(=O)CNC1=O)C(=O)N[C@@H](Cc1ccccc1)C(=O)N[C@H](C(N)=O)CSCC(=O)N[C@@H](CCCCNC(=O)COCC(=O)NCCOCCOCCOCCOCCOCCNC(=O)CSCCCF)C(=O)N2 [Example 1] ({CH2CO}-K(X1)CRGDCFC-NH2; linker 2-6 via CH2; thioether N-8)
- Ki: 7 nM

— patent US7811551B2, “Imaging agents” (GE Healthcare AS, priority 2003, dated 2010)
